# Experimental data published in publication PMC5028181 (PLoS ONE, 2016).
# Tested on: T1, BmObc1 (oxalate biosynthetic component 1; His-BmObc1)
# T1 construct: gene obc1
# Assay type: biochemical, Burkholderia mallei
row,SMILES,Km
1,CC(=O)SCCNC(=O)CCNC(=O)[C@H](O)C(C)(C)COP(=O)(O)OP(=O)(O)OC[C@H]1O[C@@H](n2cnc3c(N)ncnc32)[C@H](O)[C@@H]1OP(=O)(O)O [acetyl-CoA],26.8 ± 2.3 µM
2,O=C(O)CC(=O)C(=O)O [oxaloacetate],94.3 ± 9.2 µM
3,CCC(=O)SCCNC(=O)CCNC(=O)[C@H](O)C(C)(C)COP(=O)(O)OP(=O)(O)OC[C@H]1O[C@@H](n2cnc3c(N)ncnc32)[C@H](O)[C@@H]1OP(=O)(O)O [propionyl-CoA],104 ± 12.7 µM
